From patent US12258360B2, “Compositions and methods for treatment of anticancer-drug resistant cancers” (THE GEORGE WASHINGTON UNIVERSITY, priority 2020, dated 2025)
Several values for one entry are separate records, joined by “and”; a condition that tells them apart may be missing. Equal entries are not always repeated.

Legend:
[1] = target: T1, And-1 (Homo sapiens, UniProt O75717); test: inhibition of And-1 in OV90 CR cells; format: cell-based; parameters: endogenous in cells; details: inhibition of And-1, OV90 CR cells
T1 sequence (O75717 1-1129): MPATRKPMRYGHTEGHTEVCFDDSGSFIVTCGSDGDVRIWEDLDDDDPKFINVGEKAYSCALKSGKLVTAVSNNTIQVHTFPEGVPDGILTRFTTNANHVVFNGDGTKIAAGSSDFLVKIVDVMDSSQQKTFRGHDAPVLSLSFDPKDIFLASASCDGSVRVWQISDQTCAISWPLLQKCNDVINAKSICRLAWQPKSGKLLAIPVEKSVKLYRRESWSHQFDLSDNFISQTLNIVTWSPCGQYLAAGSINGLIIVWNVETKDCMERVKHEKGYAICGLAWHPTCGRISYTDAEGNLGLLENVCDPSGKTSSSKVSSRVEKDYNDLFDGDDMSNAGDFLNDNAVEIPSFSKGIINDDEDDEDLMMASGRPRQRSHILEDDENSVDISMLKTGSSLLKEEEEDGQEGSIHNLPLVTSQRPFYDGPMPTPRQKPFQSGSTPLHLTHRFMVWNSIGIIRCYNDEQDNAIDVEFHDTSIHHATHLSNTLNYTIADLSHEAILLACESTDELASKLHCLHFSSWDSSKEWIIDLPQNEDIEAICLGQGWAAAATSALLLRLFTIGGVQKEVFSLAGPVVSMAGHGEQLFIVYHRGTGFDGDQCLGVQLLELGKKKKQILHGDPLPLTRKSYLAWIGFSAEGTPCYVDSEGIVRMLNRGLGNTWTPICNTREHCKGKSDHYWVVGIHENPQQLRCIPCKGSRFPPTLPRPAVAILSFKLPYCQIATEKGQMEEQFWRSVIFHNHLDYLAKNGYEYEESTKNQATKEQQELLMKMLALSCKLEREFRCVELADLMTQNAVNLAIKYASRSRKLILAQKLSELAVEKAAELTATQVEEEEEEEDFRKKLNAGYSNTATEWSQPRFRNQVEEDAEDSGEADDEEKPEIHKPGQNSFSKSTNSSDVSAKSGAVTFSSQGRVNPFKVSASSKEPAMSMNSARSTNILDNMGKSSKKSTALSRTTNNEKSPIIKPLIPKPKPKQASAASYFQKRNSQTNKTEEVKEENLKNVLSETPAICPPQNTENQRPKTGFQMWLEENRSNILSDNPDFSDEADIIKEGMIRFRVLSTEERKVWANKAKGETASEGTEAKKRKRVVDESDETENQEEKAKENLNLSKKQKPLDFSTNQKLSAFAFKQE

[2] = test system: SREBP target gene SCD-1; test: RT-PCR detection of SCD-1 gene expression in AN3CA cells; format: cell-based, human; details: 10 μM
Description: • 1. Experimental reagent • 2. The experimental steps are as follows: • 2.1 AN3CA cell recovery and culture (10% serum 1% double antibody in MEM medium); • 2.2 passages (passage at a ratio of 1:2); • 2.3 Place 6 well plates when the cell status is good, 5×10^5Well, culture overnight; • 2.4 adding medicine: diluting the final concentration of the drug with a culture medium to 10 μM, 2 mL/well; • 2.5 adding medicine for 48 h, and then extracting RNA; • 2.5.1 removing the culture medium, adding 0.5 mL/hole Trizol to lyse the cells, repeatedly blowing and beating the cells by a pipette after 5 min, completely lysing the cells, transferring the cells into a 1.5 mL EP tube without RNase, and standing the tube for 5 min; • 2.5.2 adding 200 µl chloroform, shaking rapidly, mixing, standing for 10 min 12000 rpm/15 min; • 2.5.3 carefully taking out the supernatant, transferring the supernatant into an EP tube, adding isopropanol with the same volume, reversing, uniformly mixing, standing for 10 min, and centrifuging at 12000 rpm/10 min; • 2.5.4 removing the supernatant, adding 1 mL of 75% ethanol for washing, centrifuging at 8000 rpm/5 min once, carefully removing the supernatant, standing at room temperature for 10 min to volatilize the ethanol, and dissolving the precipitate with 40 μL of DEPC treated water when the precipitate becomes transparent; • 2.5.5 RNA concentration was measured and DEPC-treated water was diluted to 100 ng/μL • 2.6 reverse transcription: Kit Takara (PrimeScript RT reagent Kit (Perfect Real Time)

[3] = target: T1, And-1; test: Western blot detection of And-1 protein expression in A549 cells; format: cell-based; parameters: endogenous in cells; host or cells: A549; details: A549 cell line, 5 μM, 24 hours
Description: Select the A549 cells in good growth condition and inoculate them in a 60 mm petri dish at a density of 500,000. After culturing in a constant temperature incubator at 37° C. and 5% CO2 for 24 hours, add different compounds of the same concentration (5 μM) and continue culturing for 24 hours before collecting Cells were subjected to Western blotting experiments to compare with untreated cells to detect the inhibitory effect of each compound on the expression of And-1 protein.

[4] = target: T1, And-1; test: inhibition of And-1 in IGROV1 CR cells; format: cell-based; parameters: endogenous in cells; host or cells: IGROV1 CR; details: inhibition of And-1, IGROV1 CR cells

SMILES: OB1OCc2cc(/C=C/c3ccc(Cl)c(Cl)c3)ccc21 [III, (E)-5-(3,4-dichlorostyryl)benzo[c][1,2]oxaborol-1(3H)-ol]
- IC50 [1]: 13.3 µM
- Relative mRNA expression of SCD-1 ([2]; AN3CA cells, 48 h, DMSO = 1): 0.64
- inhibitory effect on Srebp ([2]; human endometrial cancer AN3CA cells): high inhibitory effect
- expression of And-1 protein (Western blot) [3]: significantly inhibit
- IC50 [4]: 7.8 µM and 7.83 µM
